Active and inactive are the calls of the source.
Tests used:
cells [1] = assay: cells
[2] = target: T1, Oxysterols receptor LXR-beta (Homo sapiens, UniProt P55055); format: functional, cell-based
HEK293 = assay: viability loss in HEK293T cells – cell-based, ATP luminescence, cherry-pick samples, cytotoxicity control, dose response (AID 687005); format: functional; conditions: Homo sapiens;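 note: cells exposed to compound for 48 hours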
[3] = HEK293 Cytotoxicity Assay Measured in Cell-Based System Using Plate Reader - 7071-01_Inhibitor_Dose_CherryPick_Activity_Set2.; format: functional
[4] = viability loss in HepG2 hepatoma cells – cell-based, ATP luminescence, cherry-pick, activator set 2, cytotoxicity control, dose response (AID 1053143); format: functional
[5] = target: T2, Short transient receptor potential channel 4 (Mus musculus, UniProt Q9QUQ5); assay: block of DAMGO-driven TRPC4 calcium entry – cell-based, HEK293 TRPC4/mu-opioid, Fluo-4 calcium, dose response (AID 434942); format: functional;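 note: potency of inhibitors blocking the TRPC4 calcium response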
T2 sequence (Q9QUQ5 whole entry): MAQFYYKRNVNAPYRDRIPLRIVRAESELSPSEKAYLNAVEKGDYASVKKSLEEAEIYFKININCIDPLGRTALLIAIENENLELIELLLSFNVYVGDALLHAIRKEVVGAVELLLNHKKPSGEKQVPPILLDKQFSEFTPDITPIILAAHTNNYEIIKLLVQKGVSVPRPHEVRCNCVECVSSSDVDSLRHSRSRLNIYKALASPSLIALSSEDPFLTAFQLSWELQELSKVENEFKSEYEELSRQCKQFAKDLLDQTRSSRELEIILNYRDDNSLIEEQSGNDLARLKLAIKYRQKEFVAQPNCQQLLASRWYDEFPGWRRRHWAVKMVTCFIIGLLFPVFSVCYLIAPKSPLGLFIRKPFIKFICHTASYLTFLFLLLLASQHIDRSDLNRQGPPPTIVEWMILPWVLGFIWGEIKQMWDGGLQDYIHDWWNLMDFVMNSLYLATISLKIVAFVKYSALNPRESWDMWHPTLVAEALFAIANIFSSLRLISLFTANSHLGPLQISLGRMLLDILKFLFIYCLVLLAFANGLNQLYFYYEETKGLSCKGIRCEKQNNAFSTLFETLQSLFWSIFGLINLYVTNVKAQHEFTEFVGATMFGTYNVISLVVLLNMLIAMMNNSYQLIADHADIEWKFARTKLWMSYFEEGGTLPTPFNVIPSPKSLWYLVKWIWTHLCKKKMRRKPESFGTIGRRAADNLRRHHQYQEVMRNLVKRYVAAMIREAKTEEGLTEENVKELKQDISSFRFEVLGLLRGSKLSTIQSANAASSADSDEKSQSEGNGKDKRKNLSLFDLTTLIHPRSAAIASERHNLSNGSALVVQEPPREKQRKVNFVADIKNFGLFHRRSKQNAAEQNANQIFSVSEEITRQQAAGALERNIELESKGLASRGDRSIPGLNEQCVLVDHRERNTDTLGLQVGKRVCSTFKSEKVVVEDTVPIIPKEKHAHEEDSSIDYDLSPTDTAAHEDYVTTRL

[6] = blockers of FN fibrillogenesis by fibroblasts – AH1F cells, Alexa488-FN fluorescence, cherry-picks, dose response (AID 1035475); format: functional, cell-based
[7] = viability loss in HEK293 kidney cells – cell-based, cherry-picks, set 5, cytotoxicity control, dose response (AID 1053117); format: functional
[8] = A549 cell cytotoxicity, dose response, cytotoxicity control, plate reader, cherry-pick, antagonist series (AID 743412); format: functional, cell-based
[9] = inhibition of bursicon-driven LGR2 cAMP signaling – cell-based, HEK293, CRE-luciferase reporter, cherry pick, dose response (AID 743342); format: functional
cells [10] = assay: cells; remark: listed apart in the source
Major prion protein = Major prion protein (Homo sapiens, UniProt P04156); format: functional, cell-based
[11] = target: T3, NAD-dependent protein deacylase sirtuin-5, mitochondrial (Homo sapiens, UniProt Q9NXA8); assay: blockers of sirtuin-5 peptide desuccinylation – biochemical, fluorescence imaging, cherry-pick, set 6, dose response (AID 720597)
[12] = target: T3, NAD-dependent protein deacylase sirtuin-5, mitochondrial; assay: sirtuin-5 deacylation blockers, concentration series – biochemical, fluorescence imaging, cherry-pick, set 5, dose response (AID 720591);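 note: desuccinylation of succinyl peptide AMC substrate read as fluorescence after trypsin release; potency of inhibitors that lower fluorescence and may act on trypsin instead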
[13] = target: T4, Disintegrin and metalloproteinase domain-containing protein 17 (Homo sapiens, UniProt P78536); assay: exosite inhibitors of ADAM17, dose response, biochemical (AID 743260)
[14] = target: T5, DNA repair protein RAD52 homolog (Homo sapiens, UniProt P43351); format: functional, biochemical
T5 sequence (P43351 whole entry): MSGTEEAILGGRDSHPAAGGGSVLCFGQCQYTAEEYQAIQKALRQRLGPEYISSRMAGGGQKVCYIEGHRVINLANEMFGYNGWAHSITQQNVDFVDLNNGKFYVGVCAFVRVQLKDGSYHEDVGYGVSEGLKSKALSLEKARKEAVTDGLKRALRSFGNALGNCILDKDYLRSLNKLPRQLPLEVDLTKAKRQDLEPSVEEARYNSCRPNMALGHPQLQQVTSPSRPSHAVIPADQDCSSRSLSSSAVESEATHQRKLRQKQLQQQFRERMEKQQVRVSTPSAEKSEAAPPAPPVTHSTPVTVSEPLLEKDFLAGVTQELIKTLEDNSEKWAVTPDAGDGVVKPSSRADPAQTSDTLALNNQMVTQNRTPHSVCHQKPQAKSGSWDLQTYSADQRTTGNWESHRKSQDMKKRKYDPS

[15] = target: T6, Lysine-specific demethylase 4C (Homo sapiens, UniProt Q9H3R0); assay: inhibition of JMJD2C H3K9me3 demethylation – biochemical, DELFIA europium, cherry-picked samples, dose response (AID 488835); format: functional
T6 sequence (Q9H3R0 whole entry): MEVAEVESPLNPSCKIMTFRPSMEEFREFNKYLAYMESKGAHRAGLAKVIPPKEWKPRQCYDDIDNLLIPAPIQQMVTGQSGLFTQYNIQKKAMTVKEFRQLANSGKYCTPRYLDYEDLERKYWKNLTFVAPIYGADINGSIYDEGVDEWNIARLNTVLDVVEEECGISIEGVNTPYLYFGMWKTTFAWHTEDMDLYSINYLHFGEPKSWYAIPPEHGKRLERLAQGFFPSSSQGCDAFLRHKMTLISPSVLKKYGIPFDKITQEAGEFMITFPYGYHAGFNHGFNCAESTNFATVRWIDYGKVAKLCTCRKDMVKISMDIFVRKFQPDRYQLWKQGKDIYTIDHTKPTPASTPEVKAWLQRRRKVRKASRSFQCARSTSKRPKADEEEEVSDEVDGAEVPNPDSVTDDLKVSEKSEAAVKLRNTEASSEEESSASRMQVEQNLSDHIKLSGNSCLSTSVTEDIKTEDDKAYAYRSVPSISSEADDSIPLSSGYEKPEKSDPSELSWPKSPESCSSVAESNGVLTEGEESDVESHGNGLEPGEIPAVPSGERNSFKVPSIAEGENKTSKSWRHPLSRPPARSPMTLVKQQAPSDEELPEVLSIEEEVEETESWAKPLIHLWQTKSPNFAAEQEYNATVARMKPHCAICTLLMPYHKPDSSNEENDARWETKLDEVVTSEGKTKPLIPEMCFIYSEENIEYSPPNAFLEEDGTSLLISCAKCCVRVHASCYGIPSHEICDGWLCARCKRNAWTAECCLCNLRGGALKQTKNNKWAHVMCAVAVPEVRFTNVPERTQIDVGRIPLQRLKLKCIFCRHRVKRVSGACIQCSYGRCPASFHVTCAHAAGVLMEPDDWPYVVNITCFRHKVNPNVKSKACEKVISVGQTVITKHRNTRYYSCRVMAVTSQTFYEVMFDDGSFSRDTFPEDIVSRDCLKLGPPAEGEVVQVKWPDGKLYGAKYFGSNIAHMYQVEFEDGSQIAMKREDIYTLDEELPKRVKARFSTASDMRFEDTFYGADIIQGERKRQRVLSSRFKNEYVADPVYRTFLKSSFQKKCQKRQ

[16] = target: 5-hydroxytryptamine receptor 2A (Mus musculus, UniProt P35363); format: functional, cell-based;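 note: CHO-K1 cells with tagged receptor and beta-arrestin; agonist potency measured as compound-induced activation of the receptor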
Mu-type opioid receptor = Mu-type opioid receptor (Homo sapiens, UniProt P35372); format: functional, cell-based;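 note: U2OS cells with beta-arrestin recruitment to OPRM1 by beta-gal complementation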
Protein Wnt-3a = Protein Wnt-3a (Mus musculus, UniProt P27467); assay: SAR analysis of small molecule antagonists of Gli-SUFU in a Wnt3a luminescent reporter assay.; format: functional
Fatty acid synthase = Fatty acid synthase (Homo sapiens, UniProt P49327); assay: inhibition of human FAS-TE enzyme activity – biochemical, endpoint fluorescence intensity, powder samples, SAR follow-up (AID 652164); format: functional
[17] = potency of ADAM10 substrate cleavage blockers – biochemical, QFRET, dose response (AID 743254);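 note: ADAM10 enzyme with the DM2 quenched FRET peptide as substrate; EDANS fluorescence gain as the protease cuts the substrate; inhibitor potency against ADAM10 proteolytic activity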
[18] = target: T4, Disintegrin and metalloproteinase domain-containing protein 17; assay: inhibition of ADAM17 substrate cleavage – biochemical, quenched FRET substrate, counter-screen for ADAM10 exosite inhibitor project, dose response (AID 743253)
[19] = target: T1, Oxysterols receptor LXR-beta; format: functional, cell-based; remark: listed apart in the source
[20] = viability of Vero 76 cells – cell-based, set 3, cytotoxicity control, dose response (AID 602439); format: functional; conditions: Venezuelan equine encephalitis virus
[21] = A Cell-Based Confirmatory Screen for Compounds that Inhibit VEEV, TC-83 (3).; format: functional
[22] = anti-trypanosomal activity in BESM host cells – imaging, CA-I/72 strain, bovine embryo skeletal muscle, dry powder, dose response (AID 651885); format: functional, cell-based
[23] = T. cruzi growth inhibition in host cells, dose response, cell-based, plate reader, dry powder, set 2 (AID 652275); format: functional
[24] = target: ADP-ribosylation factor GTPase-activating protein 1 (Rattus norvegicus, UniProt Q62848); assay: Fluorescence polarization-based biochemical high throughput dose response screening assay to identify inhibitors of ADP-ribosylation factor GTPase activating protein 1 (ARFGAP1).; format: functional
[25] = target: Arf-GAP with SH3 domain, ANK repeat and PH domain-containing protein 1 (Homo sapiens, UniProt Q9ULH1); format: functional;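 note: biochemical fluorescence polarization dose–response screen measuring inhibition of ASAP1; ASAP1 GAP domain stimulating GTP hydrolysis by truncated human ARF1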
Beta-galactosidase = Beta-galactosidase (Escherichia coli, UniProt Q8VNN2); assay: Dose response counterscreen for EBI2 assay utilizing the enzyme, b-galactosidase.; format: functional
HeLa = assay: viability loss in HeLa cells – cell-based, ATP luminescence, cherry-pick samples, cytotoxicity control, dose response (AID 687004); format: functional; conditions: Homo sapiens
[26] = inhibitors of non-replicating M. tuberculosis, dose response, luciferase, dry powder (AID 651620); format: functional; conditions: Mycobacterium tuberculosis
[27] = inhibitors of non-replicating M. tuberculosis, dose response, luciferase, dry powder (AID 651619); format: functional; conditions: Mycobacterium tuberculosis

Fc1cccc(F)c1/C=N/Nc1ccccn1
EC50 (cells [1]): > 67.5 µM (inactive) | EC50 [2]: > 67.5 µM (inactive)

Cc1ccc(S(=O)(=O)N2CC[C@@H]3[C@H]2c2cc(-c4ccccc4F)ccc2N[C@@H]3CO)cc1
AC50 (HEK293): > 47 µM (inactive) | AC50 [3]: > 47 µM (inactive)

Cc1nc2ccccc2n1CC(O)COc1ccccc1Cl (stereo not given)
AC50 [4]: > 52 µM (inactive) | EC50 [5]: 3.35 µM (active)

COc1cccc(-c2ccc3c(c2)[C@@H]2[C@@H](CCN2S(=O)(=O)c2cccc(OC)c2)[C@H](CO)N3)c1
AC50 [6]: 57.8 µM (active) | AC50 [7]: 30.5 µM (active)

C[C@H](CO)N1C[C@H](C)[C@H](CN(C)C(=O)Nc2ccccc2)OCCCC[C@H](C)Oc2ccc(NC(=O)CCC(F)(F)F)cc2C1=O
AC50 [8]: > 52 µM (inactive) | AC50 [9]: 13.9 µM (active)

O=C(C1=C(O)C(=O)N(CCN2CCOCC2)C1c1cccc(F)c1)c1cc2ccccc2o1 (stereo not given)
IC50 (cells [10]): > 138 µM (inactive) | IC50 (Major prion protein): 6.77 µM (active)

CCC(=O)N1CC[C@@H]2[C@@H](CO)Nc3ccc(C#Cc4cccnc4)cc3[C@@H]21
AC50 [11]: > 30 µM (inactive)

O=C(CCC(=O)OCc1ccc(Br)cc1)Nc1ccccc1
AC50 [12]: > 30 µM (inactive)

COc1cccc(C2C(C#N)=C(N)Oc3c2oc(CO)cc3=O)c1 (stereo not given)
IC50 [13]: > 69.5 µM (inactive)

NCC(O)c1cc(O)c(O)cc1F (stereo not given)
AC50 [14]: 6.44 µM (active) | AC50 [15]: 11.2 µM (active) | EC50 [16]: 0.724 µM (active) | EC50 (Mu-type opioid receptor): 92.6 µM (inactive)

O=C(Nc1cc(N2CCCC2)ncn1)c1cccc(F)c1
IC50 (Protein Wnt-3a): > 21.8 µM (inactive)

CC1CCN(S(=O)(=O)c2ccc(-c3csc(NC(=O)C4CC4)n3)cc2)CC1
IC50 (Fatty acid synthase): > 80 µM (inactive)

O=C(Nc1ccc2c(c1)OCCO2)C(c1ccnc2ccccc12)N1CCC(Cc2ccccc2)CC1 (stereo not given)
IC50 [17]: > 69.5 µM (inactive) | IC50 [18]: > 69.5 µM (inactive)

Nc1c(OS(=O)(=O)c2ccccc2)cccc1OS(=O)(=O)c1ccccc1
EC50 [19]: > 67.5 µM (inactive)

Cc1cc(Cc2cc(C)cc(C(C)(C)C)c2O)c(O)c(Cc2cc(C)cc(C(C)(C)C)c2O)c1
CC50 [20]: 43.1 µM (active) | IC50 [21]: > 25 µM (active)

CC(C)N1C[C@H](C)[C@@H](CN(C)Cc2ccc(Cl)cc2)Oc2c(NC(=O)c3ccncc3)cccc2C1=O
IC50 [22]: 0.00107 µM (active) | AC50 [23]: 0.000541 µM (active)

COC(=O)CSc1nnc2n(-c3ccc(OC)cc3)c(=O)c3c4c(sc3n12)CCCCC4
IC50 [24]: 38.1 µM (inactive) | IC50 [25]: 28.2 µM (inactive) | EC50 [5]: 1.5 µM (active)

CS(=O)(=O)N(CC(=O)NCCSc1ccc(Cl)cc1)c1ccc2c(c1)OCO2
IC50 (Beta-galactosidase): > 80 µM (inactive)

O=C(CN1CCOCC1)N1CC[C@@H]2[C@@H](CO)Nc3ccc(-c4ccccc4F)cc3[C@@H]21
AC50 (HeLa): < 0.195 µM (active)

CSc1nnc(-c2ccccc2)o1
IC90 [26]: 125 µM (active) | IC90 [27]: 125 µM (active)

Source: ChEMBL document CHEMBL1201862, “PubChem BioAssay data set” (2004)
